Assays:
[1] = system: colonic myeloperoxidase (MPO) activity; assay: Colon myeloperoxidase (MPO) activity (P34) in distal colon, VPA rat model; assay type: in vivo; design: key to MPO activity: +: improvement; Ø: no change
Description: (§1) In the first study, a sub-chronic 8-day dosing schedule was employed with the test compound CBD administered alone (10, 30 and 60 mg/kg, p.o. VPA/CBD; dose volume 5 ml/kg). Control animals were administered sterile saline (0.9% w/v, i.p.) in utero and the vehicle control (ethanol: Kolliphor HS-15:0.9% saline (1:1:18, v/v/v) p.o. VEH/VEH). The test compound and vehicle control were administered to the animals once daily for 7 days prior to, and once again on each day of behavioural assessment, 60 minutes prior to test which consisted of a battery of behavioural paradigms: P30 social play and bottle brush test, P31-32 open field exploratory behaviour. A reference positive control, the atypical antipsychotic risperidone (0.125 mg/kg, i.p., once per day for 8 days prior to and for duration of behavioural testing), was included in study one for comparison. Subsequent to behavioural analysis the effect of CBD on gastrointestinal permeability was evaluated four hours following oral administration of fluorescein isothiocyanate-labelled dextran measured in plasma on postnatal day 33. On postnatal day 34, 60 minutes post a final treatment with the test agents, animals were humanely euthanised and samples collected to evaluate inflammatory biomarkers, gastrointestinal function and histology. 5 In the second study, the sub-optimal dose of CBD (30 mg/kg, p.o.) was evaluated in combination with administration of THC at increasing concentration (0.75, 1.5 and 3 mg/kg, p.o. VPA/CBD+THC). Comparison was made to CBD administered alone at the sub-optimal and effective doses (30 and 60 mg/kg, p.o.) and to vehicle controls as per study one. Behavioural and gastrointestinal readouts were examined as per study one with terminal samples collected on the final day of the experiment.
(§2) Five animals were chosen at random from each of the agreed treatment groups. Colon tissue was collected after euthanasia, weighted, flushed using cold sterile saline, and divided into three sections. One distal sample (approx. 1 cm×1 cm) was employed for intestinal myeloperoxidase (MPO) activity as described below by Berand Ltd. This sample was weighed and stored at −80° C. until use. A second proximal colon sample (approx. 1 cm×5 cm) was prepared for histological analysis by collection using the Swiss roll technique, placed into a cassette for paraffin embedding and preservation in 10% formalin solution for 24 hours. They were then transferred into 70% ethanol solution until paraffin embedded. These samples were shipped in 70% ethanol solution to Transpharmation Ltd at trinity College Dublin, Ireland for further processing. Haematoxylin & eosin staining was performed on the tissue before imaging. Five images were taken from each animal at 1.25× magnification. Using ImageJ the thickness of the muscle layer was measured at 5 locations throughout the section. A third medial section of colon (approx. 1 cm×2.5 cm) was frozen in liquid nitrogen for the analysis of cytokine expression and was shipped at minus 80° C. to Transpharmation Ltd at Trinity College Dublin, Ireland.
Analysis of colonic myeloperoxidase (MPO) activity employed a colorimetric activity assay kit (MAK068, Sigma-Aldrich, Ireland). Samples were analysed according to the manufacturer's instructions. Briefly, weighted distal colon tissues from all the groups were rapidly homogenized with 4 volumes of MPO Assay buffer and then centrifuged (13000 g×10 min, 4° C.) to obtain the supernatant. A 50 μl aliquot of each was added to a flat bottomed 96 well plate and brought to a final volume of 100 μl with MPO assay buffer. The MPO activity in milliunits/mL was determined using a 5,5′-dithiobis-(2-nitrobenzoic acid) (DTNB) probe to produce a TNB chromophore in a standard curve (0-50 nmol/mL). Standards and blank were prepared according to manufacturer's instruction. Absorbance was read at 412 nm at 60 minutes and expressed per mg of tissue sample. […]

rat VPA model of autism = assay: Muscle thickness in rat colonic tissue (H&E histology), VPA rat model; assay type: in vivo; conditions: for Average Muscle Thickness: VPA in utero
Description: as §2
Staining was performed using the Haematoxylin and Eosin kit from Vector Laboratories (Cat. No. H-3502). Sections were deparaffinized and rehydrated by washing in xylene (3×5 min), 100% ethanol (1 min), 96% ethanol (1 min) and distilled water (2 min). Each section was fully covered in haematoxylin stain and left for 5 min before being washed twice in distilled water for 15 s. […]
Sections were imaged using an Olympus BX51 microscope at a magnification of 1.25×. Images were then analysed using ImageJ software. Thickness of muscle were measured from luminal surface to muscularis mucosa and from luminal surface to external muscle layer. […]
For the histological analysis of colonic tissue, statistical analysis was performed using GraphPad Prism 9. Normality was assessed using the Shapiro-Wilk test. […]

[2] = system: rodent in utero VPA model of autism; assay: Behavioural changes in rodent in utero VPA model of autism (overall conclusion); assay type: in vivo, rat; conditions: sub-chronic treatment with CBD alone, p.o.
Description: as §1, with “A reference positive control, the atypical antipsychotic risperidone (0.125 mg/kg, i.p., once per day for 8 days prior to and for duration of behavioural testing), was included in study one for comparison.” left out, “On postnatal day 34, 60 minutes post a final treatment with the test agents, animals were humanely euthanised and samples collected to evaluate inflammatory biomarkers, gastrointestinal function and histology.” left out, “Comparison was made to CBD administered alone at the sub-optimal and effective doses (30 and 60 mg/kg, p.o.) and to vehicle controls as per study one.” left out
Two experimental studies carried out 1). that established the effective dose of CBD and 2). determined the additive effect of CBD in combination with THC at increasing ratios. […]

C=C(C)[C@@H]1CCC(C)=C[C@H]1c1c(O)cc(CCCCC)cc1O [CBD, cannabidiol]
MPO activity ([1]; cohort one, CBD 10 mg/kg p.o.): Ø
MPO activity ([1]; cohort one, CBD 30 mg/kg p.o.): Ø
MPO activity ([1]; cohort one, CBD 60 mg/kg p.o.): +
MPO activity ([1]; cohort two, CBD 30 mg/kg, THC 0 mg/kg p.o.): Ø
MPO activity ([1]; cohort two, CBD 60 mg/kg, THC 0 mg/kg p.o.): +
increase in colonic MPO activity ([1]; study one, CBD 60 mg/kg, vs VPA/VEH): significantly prevented
increase in colonic MPO activity ([1]; study two, CBD 30 mg/kg): without significant effect
increase in colonic MPO activity ([1]; study two, CBD 60 mg/kg): significantly prevented
Average Muscle Thickness (rat VPA model of autism; CBD 30 mg/kg): 220.4 μm
Average Muscle Thickness (rat VPA model of autism; CBD 60 mg/kg): 207.2 μm
thinning of colonic muscle (rat VPA model of autism; VPA rats, treatment with CBD (30, 60 mg/kg)): attenuated
minimum effective dose [2]: 60 mg/kg

Cc1nc2n(c(=O)c1CCN1CCC(c3noc4cc(F)ccc34)CC1)CCCC2 [Risperidone, risperidone]
MPO activity ([1]; cohort one, risperidone 0.125 mg/kg i.p.): Ø
increase in colonic MPO activity ([1]; study one, risperidone 0.125 mg/kg i.p.): without effect

Source: patent US20260207632A1, “C[…] THERAPY” (KINGDOM THERAPEUTICS LIMITED, priority 2022, published 2026)
